From US20230092005A1, “COMPOSITIONS AND METHODS FOR TREATING CANCER AND TUMOR” (OBLATO, INC., priority 2020, published 2023) come the findings set out here.

The assay has as its system human A549 lung cancer xenografts. Nature of the assay: Hematoxylin & Eosin (H&E) staining of extracted A549 xenograft tumors (necrosis grading). It is filed as in vivo, BALB/c Nude mouse. To be noted: N=10. An excerpt: Histopathological test: The extracted tumors were fixed in 10% neutral buffered formalin solution (10% neutral buffered formalin). After sectioning the tumors to a certain thickness (about 3 mm), those were subjected to the general preparation procedure, embedded in paraffin, cut into 4 to 5 μm size, and tissue sections were stained with Hematoxylin and Eosin (H&E) and TUNEL. IHC (Immunohistochemistry) slides, cut into 4 to 5 μm size, were produced and sent to the sponsor (Negative Control Group (G1), Test substance 2 (G3, Animal ID Nos.: 1301, 1302, 1303, 1307, 1310), Test substance 3 (G4, Animal ID Nos.: 1401, 1402, 1404, 1408, 1409)). Determination of Hematoxylin & Eosin (H&E) staining results: Necrosis of tumors was assessed by grading (±, +, ++, +++, ++++) the extent of necrosis in the whole section of the tumor. Necrosis was evaluated by morphological changes such as collapse or disappearance of the nucleus and eosinophilic change of cytoplasm. The extent of tumor necrosis was determined by the percentage of the following necrosis area. Histopathological test (Table 7, FIGS. 7-11): The extracted fixed tumor was cut to a certain thickness (about 3 mm), then subjected to general tissue treatment, paraffin-embedded to produce blocks, and tissue sections of 4 to 5 μm in size were prepared. Then, Hematoxylin & Eosin (H&E) staining and TUNEL staining were performed.

`CC(C)(C)/[N+]([O-])=C/c1ccc(S(=O)(=O)O)cc1S(=O)(=O)O` [OKN-007, Disodium 4-[(Z)-[tert-butyl(oxido)azaniumylidene]methyl]benzene-1,3-disulfonate]: where the note is “G2, 150 mg/kg P.O.”, the “Necrosis grade + : number of animals” value is recorded as 3, the “Necrosis grade ++ (moderate): number of animals” value (from here on “Necrosis grade ++ (moderate)”) is listed as 2, the “Necrosis grade +++ (marked): number of animals” value (shortened to “Necrosis grade +++ (marked)”) turned out to be 0 and the “Necrosis grade ++++ (severe): number of animals” value (shortened to “Necrosis grade ++++ (severe)”) amounted to 0. Further, under “G2, 150 mg/kg P.O.”, the “Necrosis grade ± (minimal): number of animals” value (“Necrosis grade ± (minimal)” below) came out at 5. In addition, under “G3, 300 mg/kg P.O.”, the “Necrosis grade + : number of animals” value came to 2, the “Necrosis grade ++ (moderate)” value stood at 1, the “Necrosis grade +++ (marked)” value came to 0 and the “Necrosis grade ++++ (severe)” value is given as 0. Moreover, for the setting “G3, 300 mg/kg P.O.”, the “Necrosis grade ± (minimal)” value is 7. For the same compound, under “G4, 600 mg/kg P.O.”, the “Necrosis grade + : number of animals” value amounted to 2, the “Necrosis grade ++ (moderate)” value came out at 2, the “Necrosis grade +++ (marked)” value is given as 0 and the “Necrosis grade ++++ (severe)” value worked out at 0. Moreover, the “Necrosis grade ± (minimal)” value (G4, 600 mg/kg P.O.) stood at 6.
